Results on 2 molecules are retold here after patent US7052672B2, “Stabilized radiopharmaceutical compositions” (GE Healthcare Limited, priority 2000, dated 2006).

Series [1] is described as follows: 13C NMR investigation of the reaction between ascorbic acid and methylparaben. It counts as physicochemical. The protocol: Small portions of powdered sodium hydroxide were added with agitation to adjust the pH. At 3 defined pH's (pH 7.5, 8.8 and 9.6), a representative aliquot (0.5 cm^3) was transferred to an NMR tube. The 3 sampled reaction mixtures were monitored daily for one week by ^13C NMR When not being monitored, the mixtures were stored at room temperature protected from light. At the end of the monitoring period a small quantity of methanol was added to the solution to confirm that, if hydrolysis had occurred, the ^13C NMR signal for any methanol produced by transesterification would have been well separated from that for the initial methyl ester resonance.
The ^13C NMR spectra were obtained using a JEOL EX270 NMR spectrometer with a broad-band tuneable probe operating at a frequency of 67.94 MHz. The data for each spectrum was acquired over a period of about 30 min.
An aliquot (0.5 cm^3) of the colourless solution was removed and monitored by ^13C NMR spectroscopy. As part of the monitoring process the sample was placed in a Bruker AM250 NMR spectrometer after 29 hours and its ^13C NMR spectrum accumulated over a period of 16 hours. […] A small quantity of methanol was then added to the sample as a reference peak.

The conditions of series [2]: paraben with M=H; at 25° C.; cited from earlier work.

Turning to `COC(=O)c1ccc(O)cc1` [methylparaben, Methylparaben], the “additional components from interaction of ascorbic acid and methylparaben (13C NMR)” value in series [1] (Experiment B, pH 9.5, spectrum started after 29 hours, accumulated over 16 hours) was “no significant quantities of any additional components had been produced”. Further, in series [1] (Experiment B, pH 9.5, with ascorbic acid, after 29 hours, accumulated 16 hours), the “formation of methanol from hydrolysis of methylparaben (13C NMR)” value is recorded as “no evidence for the formation of any methanol”. For the same molecule, the “reaction with ascorbic acid or hydrolysis (13C NMR)” value in series [1] (even at pH approximately 9.6 after 7 days) was “no evidence was found from ^13C NMR studies for any significant reaction between ascorbic acid and methylparaben, or any significant hydrolysis”.

On to `CCOC(=O)c1ccc(O)cc1` [ethylparaben, Ethylparaben], for which the solubility in water in series [2] is reported as 0.070% w/w at 25° C.,.
